From PubChem BioAssay AID1919003 (Molecular Pharmacology Branch, DTP, NCI, 2023)
Several values for one entry are separate records, joined by “and”; a condition that tells them apart may be missing. Equal entries are not always repeated.

System: 786-0 complex spheroids with HUVEC/MSC, growth % test/control
Assay: Anticancer human tumor 786-0 cell line growth inhibition [AhR];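 note: compound exposure lasted seven days before the read-out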
Conditions: for viability, T/C: stronger effect = lower value
Source text: Multicellular complex tumor spheroid response to aryl hydrocarbon receptor antagonists in combination with a variety of drugs and investigational agents in selected tumor cell lines
The current study was undertaken to assess response to aryl hydrocarbon receptor antagonists in combination with standard-of-care drugs and investigational agents in solid tumor complex spheroid models. Complex spheroids include a stromal component modeled by human endothelial cells (HUVEC) and fibroblasts modeled by human mesenchymal stem cells (MSCs). The concentration ranges selected for each drug and investigational agent were based upon clinically achievable concentrations if the clinical Cmax of the agent was known.
Compounds. The drugs and investigational agents: BAY 2416964 (NSC825713), GNF351 (NSC835774), CH-223191 (NSC835775), CPI-455 (NSC825282), aza-TdCyd (NSC777586), decitabine (NSC127716), belinostat (NSC758774), entinostat (NSC756642), pevonedistat (NSC761192), tazemetostat (NSC777109), talazoparib (NSC765396), olaparib (NSC753686), selinexor (NSC780203), nedisertib (M3814, NSC802822), bortezomib (NSC756655), venetoclax (NSC766270), doxorubicin (NSC123127), elimusertib (BAY189344, NSC800525), ceralasertib (AZD6738, NSC777638), TAK-243 (NSC785004), alisertib (NSC759677), etoposide (NSC141540), topotecan (NSC609699), eribulin (NSC707389), gemcitabine (NSC613327), carboplatin (NSC241240), cisplatin (NSC119875), and SN-38 (NSC673596) were obtained from the National Cancer Institute (NCI) Developmental Therapeutics Program Chemical Repository (32). The FDA-approved anticancer drug set is available from the Developmental Therapeutics Program at https://dtp.cancer.gov/organization/dscb/obtaining/available plates.htm. […] The stock solutions were prepared in dimethyl sulfoxide (DMSO, Sigma-Aldrich, St. Louis, MO, cat. D2650), except for the platinum compounds which were prepared in saline (Quality Biological, Gaithersburg, MD, cat. 114-055-101), at 800-fold the tested concentration and stored at -70 degrees C prior to their use. All drugs and investigational agents were tested over a range starting from a high concentration at or near the clinical Cmax and decreasing in half-log increments. If the clinical Cmax for an agent had not been determined, the highest concentration tested was 10 microM (Table 1).
Cell Culture. All cells were maintained in an incubator at 37 degrees C and 5% CO2 with 95% humidity. The PDC lines were cultured according to standard operating procedures established by the NCI PDMR (https://pdmr.cancer.gov). Briefly, all PDCs were thawed and cultured in Matrigel-coated flasks prepared with a working solution of 1X Ham's F-12 nutrient mix, without supplementation (Invitrogen, Waltham, MA, cat. 11765054), 100 U/mL penicillin-streptomycin (Invitrogen, cat. 15140122), and 2.5% Matrigel (Corning Inc., Corning, NY, cat. 354248) for the first three passages. All PDCs were cultured in complete DMEM/F-12 media containing advanced DMEM/F-12 (Invitrogen, cat. 12634028), 4.9% defined fetal bovine serum, heat inactivated (HyClone Laboratories Inc., Logan, UT, cat. SH30070.03HI), 389 ng/mL hydrocortisone (Sigma-Aldrich, cat. H4001), 9.7 ng/mL human EGF recombinant protein (Invitrogen, cat. PHG0313), 23.4 microg/mL adenine (Sigma-Aldrich, cat. A2786), 97.3 U/mL penicillin-streptomycin (Invitrogen, cat. 15140122), 1.9 mM L-glutamine (Invitrogen, cat. 25030081), and 9.7 microM Y-27632 dihydrochloride (Tocris Bioscience, Bristol, United Kingdom, cat. 1254). The PDCs were cultured in complete DMEM/F12 media without 10 microM Y-27632 dihydrochloride for at least two passages prior to the screen. The established cell lines NCI-H1341 and […] were cultured in DMEM/F-12, HEPES (Invitrogen, cat. 11330032), 5% defined fetal bovine serum (HyClone Laboratories Inc., cat. SH30070.03), ITS premix universal culture supplement [insulin (5 microg/mL), transferrin (5 microg/mL), and selenious acid (5 ng/mL)] […]

[1] = curve of first compound, second compound 0.1 µM
[2] = curve of first compound, second compound 0.316 µM
[3] = curve of first compound, second compound 1 µM
[4] = curve of first compound, second compound 3.16 µM
[5] = curve of first compound, second compound 10 µM

With `CCc1c2c(nc3ccc(O)cc13)-c1cc3c(c(=O)n1C2)COC(=O)[C@]3(O)CC` + Cc1ccccc1N=Nc1ccc(NC(=O)c2ccnn2C)c(C)c1 the IC50 [1] was 6.1 nM, the IC50 [2] was 6.33 nM and the IC50 [3] was 6.39 nM. It also gave an IC50 [4] of 6.1 nM, an IC50 [5] of 5.18 nM and a viability, T/C (second compound 0.1 µM, first compound 0.000949 µM) of 106%. The viability, T/C (second compound 0.1 µM, first compound 0.003 µM) was 96.2%, the viability, T/C (second compound 0.1 µM, first compound 0.00949 µM) was 21.1% and the viability, T/C (second compound 0.1 µM, first compound 0.03 µM) was 9.38%. The viability, T/C (second compound 0.1 µM, first compound 0.0949 µM) was 3.43%, the viability, T/C (second compound 0.1 µM, first compound 0.3 µM) was 4.01% and the viability, T/C (second compound 0.316 µM, first compound 0.000949 µM) was 107%. The viability, T/C (second compound 0.316 µM, first compound 0.003 µM) was 106%, the viability, T/C (second compound 0.316 µM, first compound 0.00949 µM) was 19.7% and the viability, T/C (second compound 0.316 µM, first compound 0.03 µM) was 9.77%. The viability, T/C (second compound 0.316 µM, first compound 0.0949 µM) was 4.26%, the viability, T/C (second compound 0.316 µM, first compound 0.3 µM) was 3.54% and the viability, T/C (second compound 1 µM, first compound 0.000949 µM) was 101%. It also gave a viability, T/C (second compound 1 µM, first compound 0.003 µM) of 102%, a viability, T/C (second compound 1 µM, first compound 0.00949 µM) of 22.9% and a viability, T/C (second compound 1 µM, first compound 0.03 µM) of 10.2%. The viability, T/C (second compound 1 µM, first compound 0.0949 µM) was 4.47%, the viability, T/C (second compound 1 µM, first compound 0.3 µM) was 2.91% and the viability, T/C (second compound 3.16 µM, first compound 0.000949 µM) was 98.1%. The viability, T/C (second compound 3.16 µM, first compound 0.003 µM) was 95.6%, the viability, T/C (second compound 3.16 µM, first compound 0.00949 µM) was 21.6% and the viability, T/C (second compound 3.16 µM, first compound 0.03 µM) was 8.98%. It also gave a viability, T/C (second compound 3.16 µM, first compound 0.0949 µM) of 4.32%, a viability, T/C (second compound 3.16 µM, first compound 0.3 µM) of 3.54% and a viability, T/C (second compound 10 µM, first compound 0.000949 µM) of 89.7%. It also gave a viability, T/C (second compound 10 µM, first compound 0.003 µM) of 78.8%, a viability, T/C (second compound 10 µM, first compound 0.00949 µM) of 18.1% and a viability, T/C (second compound 10 µM, first compound 0.03 µM) of 8.91%. It also gave a viability, T/C (second compound 10 µM, first compound 0.0949 µM) of 4.41% and a viability, T/C (second compound 10 µM, first compound 0.3 µM) of 3.24%.

`CC1(C)CCC(CN2CCN(c3ccc(C(=O)NS(=O)(=O)c4ccc(NCC5CCOCC5)c([N+](=O)[O-])c4)c(Oc4cnc5[nH]ccc5c4)c3)CC2)=C(c2ccc(Cl)cc2)C1` was tested, and the viability, T/C (compound 0.0316 µM) was 99.3% and 109% and 105%, the viability, T/C (compound 0.1 µM) was 97.5% and 98.3% and 98% and the viability, T/C (compound 0.316 µM) was 102% and 108% and 99.2%. The viability, T/C (compound 1 µM) was 107% and 108% and 102%, the viability, T/C (compound 3.16 µM) was 101% and 97.3% and 81.5% and the viability, T/C (compound 10 µM) was 61.2% and 77.3% and 77.1%. For the same compound, the IC50 (curve of compound) was > 10000 nM.

`NS(=O)(=O)OCC1CC(n2ccc3c(NC4CCc5ccccc54)ncnc32)CC1O` (configuration not stated) + Cc1cncc(-c2nc(NCCc3c[nH]c4ccccc34)c3ncn(C(C)C)c3n2)c1 showed an IC50 [1] of 639 nM, an IC50 [2] of 649 nM and an IC50 [3] of 581 nM. For the same compound, the IC50 [4] was 306 nM, the IC50 [5] was < 31.6 nM and the viability, T/C (second compound 0.1 µM, first compound 0.0316 µM) was 96.8%. For the same compound, the viability, T/C (second compound 0.1 µM, first compound 0.1 µM) was 84.5%, the viability, T/C (second compound 0.1 µM, first compound 0.316 µM) was 74.8% and the viability, T/C (second compound 0.1 µM, first compound 1 µM) was 35%. The viability, T/C (second compound 0.1 µM, first compound 3.16 µM) was 10.5%, the viability, T/C (second compound 0.1 µM, first compound 10 µM) was 5.21% and the viability, T/C (second compound 0.316 µM, first compound 0.0316 µM) was 100%. It also gave a viability, T/C (second compound 0.316 µM, first compound 0.1 µM) of 82.9%, a viability, T/C (second compound 0.316 µM, first compound 0.316 µM) of 75.8% and a viability, T/C (second compound 0.316 µM, first compound 1 µM) of 36%. The viability, T/C (second compound 0.316 µM, first compound 3.16 µM) was 8.3%, the viability, T/C (second compound 0.316 µM, first compound 10 µM) was 4.21% and the viability, T/C (second compound 1 µM, first compound 0.0316 µM) was 103%. The viability, T/C (second compound 1 µM, first compound 0.1 µM) was 83.6%, the viability, T/C (second compound 1 µM, first compound 0.316 µM) was 74.2% and the viability, T/C (second compound 1 µM, first compound 1 µM) was 30.7%. The viability, T/C (second compound 1 µM, first compound 3.16 µM) was 8.16%, the viability, T/C (second compound 1 µM, first compound 10 µM) was 5.53% and the viability, T/C (second compound 3.16 µM, first compound 0.0316 µM) was 71.9%. It also gave a viability, T/C (second compound 3.16 µM, first compound 0.1 µM) of 66%, a viability, T/C (second compound 3.16 µM, first compound 0.316 µM) of 50.1% and a viability, T/C (second compound 3.16 µM, first compound 1 µM) of 16.5%. The viability, T/C (second compound 3.16 µM, first compound 3.16 µM) was 3.65%, the viability, T/C (second compound 3.16 µM, first compound 10 µM) was 2.28% and the viability, T/C (second compound 10 µM, first compound 0.0316 µM) was 6.13%. It also gave a viability, T/C (second compound 10 µM, first compound 0.1 µM) of 6.79%, a viability, T/C (second compound 10 µM, first compound 0.316 µM) of 1.4% and a viability, T/C (second compound 10 µM, first compound 1 µM) of 1.01%. The viability, T/C (second compound 10 µM, first compound 3.16 µM) was 0.49% and the viability, T/C (second compound 10 µM, first compound 10 µM) was 0.45%.
